# pIC50: −log10 of the molar value.
# Columns and labels:
# SK-MEL-5 = experiment: NCI-60 cytotoxicity, SK-MEL-5; assay type: cell-based, human; details: SK-MEL-5 (Melanoma), 72 h
# Method: (§1) Briefly, human NCI-60 cancer cell lines were counted with a Vi-CELL Cell Viability Analyzer (Beckman Coulter), resuspended in RPMI-1640 medium containing 10% FBS and 1% penicillin/streptomycin and dispensed in wells of 96-well microplates (3000 cells per well for solid tumor and 5000 per well for blood tumor cells) using an epMotion 5075 liquid handler (Eppendorf) under a sterile condition, followed by incubation overnight at 37° C. in 5% (v/v) CO2. Cells were exposed to compounds in a dose-dependent manner for 72 h. An MTS dye (20 uL per well) was added to each well. Cell viability was determined by tetrazolium conversion to its […] dye. […] Each experiment was performed in duplicate. […] H9 cells are more sensitive to drugs, therefore instead of 72 hours, we choose 48 hour the incubation time for H9 cells.
# (§2) IC50 values were determined using […] software (Biosoft).
# EKVX = experiment: NCI-60 cytotoxicity, EKVX; assay type: cell-based, human; details: EKVX (Lung), 72 h
# Method: as §1, §2
# LOX IMVI = experiment: NCI-60 cytotoxicity, LOX IMVI; assay type: cell-based, human; details: LOX IMVI (Melanoma), 72 h
# Method: as §1, §2
# TK-10 = experiment: NCI-60 cytotoxicity, TK-10; assay type: cell-based, human; details: TK-10 (Renal), 72 h
# Method: as §1, §2
# SKOV3 = experiment: NCI-60 cytotoxicity, SKOV3; assay type: cell-based, human; details: SKOV3 (Ovarian), 72 h
# Method: as §1, §2
# A549 = experiment: NCI-60 cytotoxicity, A549; assay type: cell-based, human; details: A549 (Lung), 72 h
# Method: as §1, §2
# SR = experiment: NCI-60 cytotoxicity, SR; assay type: cell-based, human; details: SR (Leukemia), 72 h
# Method: as §1, §2
# HOP-62 = experiment: NCI-60 cytotoxicity, HOP-62; assay type: cell-based, human; details: HOP-62 (Lung), 72 h
# Method: as §1, §2
# HT29 = experiment: NCI-60 cytotoxicity, HT29; assay type: cell-based, human; details: HT29 (Colon), 72 h
# Method: as §1, §2
# SN12C = experiment: NCI-60 cytotoxicity, SN12C; assay type: cell-based, human; details: SN12C (Renal), 72 h
# Method: as §1, §2
# NCI-H460 = experiment: NCI-60 cytotoxicity, NCI-H460; assay type: cell-based, human; details: NCI-H460 (Lung), 72 h
# Method: as §1, §2
# SW-620 = experiment: NCI-60 cytotoxicity, SW-620; assay type: cell-based, human; details: SW-620 (Colon), 72 h
# Method: as §1, §2
# A498 = experiment: NCI-60 cytotoxicity, A498; assay type: cell-based, human; details: A498 (Renal), 72 h
# Method: as §1, §2
# MOLT-4 = experiment: NCI-60 cytotoxicity, MOLT-4; assay type: cell-based, human; details: MOLT-4 (ALL), 72 h
# Method: as §1, §2
# BT-S49 = experiment: NCI-60 cytotoxicity, BT-S49; assay type: cell-based, human; details: BT-S49 (Breast), 72 h
# Method: as §1, §2
# CCRF-CEM = experiment: NCI-60 cytotoxicity, CCRF-CEM; assay type: cell-based, human; details: CCRF-CEM (Leukemia), 72 h
# Method: as §1, §2
# CAKI-1 = experiment: NCI-60 cytotoxicity, CAKI-1; assay type: cell-based, human; details: CAKI-1 (Renal), 72 h
# Method: as §1, §2
# Colo 205 = experiment: NCI-60 cytotoxicity, Colo 205; assay type: cell-based, human; details: Colo 205 (Colon), 72 h
# Method: as §1, §2
# MCF7 = experiment: NCI-60 cytotoxicity, MCF7; assay type: cell-based, human; details: MCF7 (Breast), 72 h
# Method: as §1, §2
# SNB-75 = experiment: NCI-60 cytotoxicity, SNB-75; assay type: cell-based, human; details: SNB-75 (CNS), 72 h
# Method: as §1, §2
# M14 = experiment: NCI-60 cytotoxicity, M14; assay type: cell-based, human; details: M14 (Melanoma), 72 h
# Method: as §1, §2
# HL60 = experiment: NCI-60 cytotoxicity, HL60; assay type: cell-based, human; details: HL60 (AML), 72 h
# Method: as §1, §2
# MDA-MB-231 = experiment: NCI-60 cytotoxicity, MDA-MB-231; assay type: cell-based, human; details: MDA-MB-231 (Breast), 72 h
# Method: as §1, §2
# NCI-H552 = experiment: NCI-60 cytotoxicity, NCI-H552; assay type: cell-based, human; details: NCI-H552 (Lung), 72 h
# Method: as §1, §2
# p38γ = p38γ mRNA level and protein expression (Western blot); assay type: cell-based; details: 4 hr
# From the text: qRT-PCR (real-time quantitative reverse transcription PCR): Total RNA was generated using TRIZOL reagent (Life Technologies, Carlsbad, Calif.) followed by double DNase treatment and column purification using Qiagen RNeasy Clean-up (Qiagen, Germantown, Md.). The Invitrogen […] III First-Strand Synthesis System was used for cDNA synthesis and TaqMan 5700 Sequence Detection System (Applied Biosystems, Foster City, Calif.) were used for qRT-PCR. All PCR reactions were run in triplicate. The amplified transcripts were quantified using the comparative CT method as described. cDNA and primers for MAPK11, 12, 13, and 14 and GAPDH (Table 9) were added to SYBR GREEN PCR Master Mix (SYBR Green I Dye, […]® DNA polymerase, dNTPs with dUTP and optimal buffer components; Applied Biosystems) and subjected to PCR amplification (1 cycle at 95° C. for 3 min; 35 cycles at 95° C. for 15 s and 55° C. for 30 s; 1 cycle at 50° C. for 2 min).
# SK-MEL-28 = experiment: NCI-60 cytotoxicity, SK-MEL-28; assay type: cell-based, human; details: SK-MEL-28 (Melanoma), 72 h
# Method: as §1, §2
# HS 578T = experiment: NCI-60 cytotoxicity, HS 578T; assay type: cell-based, human; details: HS 578T (Breast), 72 h
# Method: as §1, §2
# NCI-H226 = experiment: NCI-60 cytotoxicity, NCI-H226; assay type: cell-based, human; details: NCI-H226 (Lung), 72 h
# Method: Cells were exposed to compounds in a dose-dependent manner for 72 h. An MTS dye (20 uL per well) was added to each well. Cell viability was determined by tetrazolium conversion to its format an dye. Absorbance was monitored at 490 nm using an automated BMG PHERAstar plate reader (BMG Labtech). Each experiment was performed in duplicate. IC50 values were determined using CalcuSyn software (Biosoft).
# Absorbance was monitored at 490 nm using an automated BMG PHERAstar plate reader (BMG Labtech). […] All experiments are repeated in three independent experiments and data represented are the average of triplicate experiments.
structure (smiles),measurement,setting,value
Cc1ccc([N+](=O)[O-])cc1S(=O)(=O)N(C)/N=C/c1cnc2ccc(Br)cn12 [Compound 1],pIC50,SK-MEL-5; Homo sapiens,< 5.00
same,pIC50,EKVX; Homo sapiens,5.91
same,pIC50,LOX IMVI; Homo sapiens,7.14
same,pIC50,TK-10; Homo sapiens,6.09
same,pIC50,"SKOV3; Homo sapiens, SK-OV-3",6.54
same,pIC50,A549; Homo sapiens,5.58
same,pIC50,SR; Homo sapiens,> 9.00
same,pIC50,HOP-62; Homo sapiens,8.10
same,pIC50,"HT29; Homo sapiens, HT-29",7.06
same,pIC50,SN12C; Homo sapiens,6.33
same,pIC50,NCI-H460; Homo sapiens,8.00
same,pIC50,SW-620; Homo sapiens,7.13
same,pIC50,A498; Homo sapiens,7.57
same,pIC50,MOLT-4; Homo sapiens,6.28
same,pIC50,BT-S49; Homo sapiens,> 9.00
same,pIC50,CCRF-CEM; Homo sapiens,5.43
same,pIC50,CAKI-1; Homo sapiens,6.46
same,pIC50,Colo 205; Homo sapiens,5.66
same,pIC50,MCF7; Homo sapiens,6.62
same,pIC50,SNB-75; Homo sapiens,6.36
same,pIC50,M14; Homo sapiens,6.71
same,pIC50,"HL60; Homo sapiens, HL-60",8.30
same,pIC50,MDA-MB-231; Homo sapiens,6.33
same,pIC50,NCI-H552; Homo sapiens,< 5.00
same,mRNA level of p38 gamma,p38γ,reduces the mRNA level
same,pIC50,SK-MEL-28; Homo sapiens,5.77
same,pIC50,HS 578T; Homo sapiens,6.23
O=C1NC(=NCc2cccs2)S/C1=C\c1ccc2ncccc2c1 [Compound A10],pIC50,SK-MEL-5,< 5.00
same,pIC50,EKVX,< 5.00
same,pIC50,LOX IMVI,5.36
same,pIC50,NCI-H226,< 5.00
same,pIC50,TK-10,< 5.00
same,pIC50,SKOV3,< 5.00
same,pIC50,A549,< 5.00
same,pIC50,SR,6.43
same,pIC50,HOP-62,< 5.00
same,pIC50,HT29,< 5.00
same,pIC50,SN12C,< 5.00
same,pIC50,NCI-H460,< 5.00
same,pIC50,SW-620,< 5.00
same,pIC50,A498,< 5.00
same,pIC50,MOLT-4,5.28
same,pIC50,BT-S49,5.32
same,pIC50,CCRF-CEM,5.60
same,pIC50,CAKI-1,< 5.00
same,pIC50,Colo 205,< 5.00
same,pIC50,SNB-75,< 5.00
same,pIC50,HL60,5.94
same,pIC50,MDA-MB-231,< 5.00
same,pIC50,NCI-H552,< 5.00
same,pIC50,SK-MEL-28,< 5.00
same,pIC50,HS 578T,5.23
O=C1NCCc2[nH]c(-c3ccncc3)cc21 [Compound A11],pIC50,SK-MEL-5,< 5.00
same,pIC50,EKVX,< 5.00
same,pIC50,LOX IMVI,5.45
same,pIC50,NCI-H226,< 5.00
same,pIC50,TK-10,< 5.00
same,pIC50,SKOV3,< 5.00
same,pIC50,A549,< 5.00
same,pIC50,SR,6.54
same,pIC50,HOP-62,5.00
same,pIC50,HT29,5.30
same,pIC50,SW-620,5.41
same,pIC50,A498,< 5.00
same,pIC50,MOLT-4,5.16
same,pIC50,BT-S49,6.15
same,pIC50,CCRF-CEM,5.60
same,pIC50,CAKI-1,< 5.00
same,pIC50,Colo 205,< 5.00
same,pIC50,MCF7,5.42
same,pIC50,SNB-75,5.21
same,pIC50,M14,5.48
same,pIC50,HL60,6.61
same,pIC50,MDA-MB-231,< 5.00
same,pIC50,NCI-H552,< 5.00
same,pIC50,SK-MEL-28,5.02
same,pIC50,HS 578T,< 5.00

# Source: US20230190717A1, “P38 GAMMA INHIBITORS AND METHOD OF USE THEREOF” (City of Hope, priority 2017, published 2023)
